Our source for the Kd, inhibition and IC50 values is US10975037B2 (priority 2018, dated 2021).

Experiment [1] concerns the target human RORγt ligand binding domain (RORγt LBD) (Homo sapiens (Human), UniProt P51449). The experiment can be described thus: RORγt ThermoFluor® assay (thermal shift binding). The method, then: This approach is applicable to a wide variety of systems, and rigorous in theoretical interpretation through quantitation of equilibrium binding constants (KD).
The shift in the melting point described as a ΔTm is proportional to the concentration and affinity of the ligand.
RORγt ThermoFluor® Assay Construct
Reference wells contained RORγt without compounds, and the assay conditions were as follows: • 0.065 mg/mL RORγt • 60 μM 1,8-ANS • 100 mM Hepes, pH 7.0 • 10 mM NaCl • 2.5 mM GSH • 0.002% Tween-20
Project compounds were arranged in a pre-dosed mother plate (Greiner Bio-one) wherein compounds are serially diluted in 100% DMSO by 1:2 from a high concentration of 10 mM over 12 columns within a series (column 12 is a reference well containing DMSO, no compound). The compounds were robotically dispensed directly into assay plates (1×=46 nL) using a Hummingbird capillary liquid handling instrument (Digilab). Following compound dispense, protein and dye in buffer was added to achieve the final assay volume of 3 μL, followed by 1 μL of silicone oil.

Another experiment deals with full-length human RORγt (Homo sapiens (Human), UniProt P51449). Nature of the experiment: RORγt (full-length human) reporter assay, conditions A or B, HEK293T cells. The settings on record: for pIC50: RORγt (FL) Reporter Assay A or B, IC50, HEK293T cells; for inhibition at 2 µM: 2 μM compound concentration; for inhibition at 6 µM: read-out: RORγt (FL) Reporter Assay A or B, % inhibition @ 6 μM; for inhibition at 3 µM: 3 μM compound concentration (footnote *). It counts as cell-based. The method, then:
RORγt (Full-Length Human) Reporter Assay:
(§1) HEK293T cells were plated at 35,000 per well in 96-well plate in medium of DMEM with 10% FBS. […] After overnight (16 to 20 hours) incubation, media were removed and cells were lysed with 50 L Glo Lysis Buffer (Promega) for 10-15 minutes followed by 10 minute incubation with 50 μL Dual Glo reagent (Promega) at room temperature. Firefly luciferase luminescence was measured using a BMG Pherastar plate reader. To each well, 50 μL Stop and Glo reagent was added and incubated for 10 minutes at room temperature. Renilla luminescence was measured using a BMG Pherastar plate reader. To calculate the effect of compounds on RORγt activity, firefly values were normalized against values of DMSO only and values of reference compound at saturating concentration, then further normalized against Renilla signals. IC50s were generated by plotting final Renilla normalized data against compound concentration and percent inhibition was calculated against DMSO control.
as §1, with “at 8750 cells” for “at 35,000”, “in 384-well” for “in 96-well”, “with 20” for “with 50”, “well, 20” for “well, 50”

Setting [2] is: HEK-293T, 1 μM compound concentration (footnote ***), read-out: RORγt (FL) Reporter Assay A or B, % inhibition.
Setting [3] is: read-out: ThermoFluor® Assay, Kd.
[4] abbreviates: HEK-293T, read-out: RORγt (FL) Reporter Assay A or B, % inhibition.

pIC50, pKd: −log10 of the molar value. Counter-ions that a name gives are not always drawn. Like-named read-outs stand apart in the source and are kept apart here. A value given as a limit tells only on which side of the number the result lay.

Chain of full-length human RORγt (P51449 other isoform, or with tags, fused parts or gaps): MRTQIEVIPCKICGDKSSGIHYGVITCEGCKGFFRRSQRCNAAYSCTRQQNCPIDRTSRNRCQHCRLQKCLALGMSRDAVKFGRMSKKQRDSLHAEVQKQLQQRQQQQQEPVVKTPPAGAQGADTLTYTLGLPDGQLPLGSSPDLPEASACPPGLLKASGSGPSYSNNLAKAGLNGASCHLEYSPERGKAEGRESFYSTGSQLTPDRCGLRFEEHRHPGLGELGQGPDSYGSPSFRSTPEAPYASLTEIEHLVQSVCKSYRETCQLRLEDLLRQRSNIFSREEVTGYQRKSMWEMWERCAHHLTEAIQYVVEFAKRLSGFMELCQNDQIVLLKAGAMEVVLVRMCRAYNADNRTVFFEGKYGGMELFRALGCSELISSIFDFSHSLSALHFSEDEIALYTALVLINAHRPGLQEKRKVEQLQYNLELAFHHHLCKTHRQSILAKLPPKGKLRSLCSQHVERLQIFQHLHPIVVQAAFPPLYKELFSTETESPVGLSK
Chain of human RORγt ligand binding domain (RORγt LBD) (P51449 other isoform, or with tags, fused parts or gaps): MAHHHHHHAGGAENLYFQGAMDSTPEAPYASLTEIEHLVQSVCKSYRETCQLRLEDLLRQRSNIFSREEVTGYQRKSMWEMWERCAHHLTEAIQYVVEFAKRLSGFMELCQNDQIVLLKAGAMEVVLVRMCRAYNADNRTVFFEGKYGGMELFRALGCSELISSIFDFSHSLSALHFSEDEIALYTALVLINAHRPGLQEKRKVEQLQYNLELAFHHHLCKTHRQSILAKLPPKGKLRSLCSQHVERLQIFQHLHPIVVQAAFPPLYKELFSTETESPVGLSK

Turning to `CCn1nc(C(=O)NC[C@@]2(O)CC[C@H](S(C)(=O)=O)C[C@@H]2N)c(Cl)c1-c1ccc(CC(C)(C)C(F)(F)F)cc1OC(F)F` (stereo in doubt) [Example 7, N-(((1S*,2S*,4S*)-2-Amino-1-hydroxy-4-(methylsulfonyl)cyclohexyl)methyl)-4-chloro-5-(2-(difluoromethoxy)-4-(3,3,3-trifluoro-2,2-dimethylpropyl)phenyl)-1-ethyl-1H-pyrazole-3-carboxamide hydrobromide], the pKd in experiment [1] (ThermoFluor® Assay, Kd) was 8.68. For the same molecule, the inhibition at 1 µM on full-length human RORγt (setting [2]) came to 103%. The same molecule had a negative-log IC50 (pIC50) against full-length human RORγt of 7.17.
As to `CCn1nc(C(=O)NC[C@]2(O)CC[C@@H](S(C)(=O)=O)CC2)c(Cl)c1-c1ccc(CCC(C)C)cc1OC` [Example 75, 4-Chloro-1-ethyl-N-(((1s,4s)-1-hydroxy-4-(methylsulfonyl)cyclohexyl)methyl)-5-(4-isopentyl-2-methoxyphenyl)-1H-pyrazole-3-carboxamide], the pKd in experiment [1] (setting [3]) was 9.06. For the same molecule, on full-length human RORγt (setting [4]), the inhibition at 2 µM worked out at 62%. This molecule showed a pIC50 against full-length human RORγt of 7.60.
Consider `CCc1c(C(=O)NC[C@H]2CC[C@H](S(C)(=O)=O)CC2)nn(CC)c1-c1ccc(N[C@H](C)C(F)(F)F)cc1OC` [Example 130, 1,4-Diethyl-5-(2-methoxy-4-(((R)-1,1,1-trifluoropropan-2-yl)amino)phenyl)-N-(((r,4R)-4-(methylsulfonyl)cyclohexyl)methyl)-1H-pyrazole-3-carboxamide], for which the pKd in experiment [1] (setting [3]) is 8.00. Further, the inhibition at 2 µM on full-length human RORγt (setting [4]) came to 100%. For the same molecule, the pIC50 on full-length human RORγt is 7.21.
Regarding `CCn1nc(C(=O)NC[C@]2(O)CC[C@@H](S(C)(=O)=O)CC2)c(Cl)c1-c1ccc(CCC(F)(F)F)cc1OC` [Example 39, 4-Chloro-1-ethyl-N-(((1s,4s)-1-hydroxy-4-(methylsulfonyl)cyclohexyl)methyl)-5-(2-methoxy-4-(3,3,3-trifluoropropyl)phenyl)-1H-pyrazole-3-carboxamide], the pKd in experiment [1] (setting [3]) is 8.00. Besides, the inhibition at 6 µM at full-length human RORγt (HEK-293T, 6 μM compound concentration) worked out at 85%. This molecule also gave a pIC50 against full-length human RORγt of 7.42.
On to `CCn1nc(C(=O)NC[C@H]2CC[C@H](S(C)(=O)=O)CC2)c(Cl)c1-c1ccc(NC(C(F)(F)F)C(F)(F)F)cc1OC` [Example 216, 4-Chloro-1-ethyl-5-(4-((1,1,1,3,33-hexafluoropropan-2-yl)amino)-2-methoxyphenyl)-N-(((1r,4r)-4-(methylsulfonyl)cyclohexyl)methyl)-1H-pyrazole-3-carboxamide], for which the pKd in experiment [1] (setting [3]) is 9.01. In addition, the inhibition at 2 µM at full-length human RORγt (setting [4]) came to 107%. Besides, on full-length human RORγt, the negative logarithm of the IC50 (pIC50) is 7.55.
As to `CCn1nc(C(=O)NC[C@H]2CC[C@H](S(C)(=O)=O)CC2)c(Cl)c1-c1ccc(C[C@@H](C)C(F)(F)F)cc1OC(F)F` (single isomer, unassigned) [Example 135, 4-Chloro-5-(2-(difluoromethoxy)-4-((R*)-3,3,3-trifluoro-2-methylpropyl)phenyl)-1-ethyl-N-(((1r,4R)-4-(methylsulfonyl)cyclohexyl)methyl)-1H-pyrazole-3-carboxamide], the pKd in experiment [1] (ThermoFluor® Assay, Kd) is 9.34. In addition, on full-length human RORγt (HEK-293T, 0.33 μM compound concentration (footnote *****), read-out: RORγt (FL) Reporter Assay A or B, % inhibition), the inhibition at […] is 83%. In addition, the negative logarithm of the IC50 (pIC50) against full-length human RORγt is 7.96.
As to `CCn1nc(C(=O)NC[C@H]2CC[C@H](S(C)(=O)=O)CC2)c(Cl)c1-c1ccc(CCCC(F)(F)F)cc1OC` [Example 80, 4-Chloro-1-ethyl-5-(2-methoxy-4-(4,4,4-trifluorobutyl)phenyl)-N-(((1r,4r)-4-(methylsulfonyl)cyclohexyl)methyl)-1H-pyrazole-3-carboxamide], the negative logarithm of the Kd (pKd) in experiment [1] (setting [3]) is 8.64. Further, on full-length human RORγt (setting [4]), the inhibition at 2 µM stood at 89%. This molecule had a pIC50 against full-length human RORγt of 8.22.
`CC(C)(Cc1ccc(-c2c(Cl)c(C(=O)NC[C@]3(O)CC[C@@H](S(C)(=O)=O)CC3)nn2CCCC#N)c(OC(F)F)c1)C(F)(F)F` [Example 229, 4-Chloro-1-(3-cyanopropyl)-5-(2-(difluoromethoxy)-4-(3,3,3-trifluoro-2,2-dimethylpropyl)phenyl)-N-(((1s,4s)-1-hydroxy-4-(methylsulfonyl)cyclohexyl)methyl)-1H-pyrazole-3-carboxamide]: the negative logarithm of the Kd (pKd) in experiment [1] (setting [3]) is 8.51. The inhibition at 3 µM at full-length human RORγt (setting [4]) was 78%. Moreover, the negative logarithm of the IC50 (pIC50) on full-length human RORγt is 8.05.
For `C[C@H](Cc1ccc(-c2c(Cl)c(C(=O)NC[C@H]3CC[C@H](S(C)(=O)=O)CC3)nn2C)c(OC(F)F)c1)C(F)(F)F` [Example 151, 4-Chloro-5-(2-(difluoromethoxy)-4-((R)-3,3,3-trifluoro-2-methylpropyl)phenyl)-1-methyl-N-(((1r,4R)-4-(methylsulfonyl)cyclohexyl)methyl)-1H-pyrazole-3-carboxamide], in experiment [1] (setting [3]), the pKd was 8.80. The inhibition at 1 µM at full-length human RORγt (setting [4]) came out at 92%. At full-length human RORγt, this molecule showed a negative logarithm of the IC50 (pIC50) of 7.64.
Consider `CCn1nc(C(=O)NC[C@H]2CC[C@H](S(C)(=O)=O)CC2)c(C#N)c1-c1ccc(CCC(F)(F)F)cc1OC` [Example 125, 4-Cyano-1-ethyl-5-(2-methoxy-4-(3,3,3-trifluoropropyl)phenyl)-N-(((1r,4r)-4-(methylsulfonyl)cyclohexyl)methyl)-1H-pyrazole-3-carboxamide], for which the pKd in experiment [1] (setting [3]) was 7.36. Further, the inhibition at 6 µM at full-length human RORγt (HEK-293T) worked out at 85%. The molecule also had a negative-log IC50 (pIC50) against full-length human RORγt of 6.64.
As for `CCn1nc(C(=O)NC[C@]2(O)CC[C@@H](S(C)(=O)=O)CC2)c(Cl)c1-c1ccc(CCC(F)(F)F)cc1C(F)(F)F` [Example 170, 4-Chloro-1-ethyl-N-(((1s,4s)-1-hydroxy-4-(methylsulfonyl)cyclohexyl)methyl)-5-(2-(trifluoromethyl)-4-(3,3,3-trifluoropropyl)phenyl)-1H-pyrazole-3-carboxamide], the inhibition at 2 µM at full-length human RORγt (setting [4]) stood at 5%. The pIC50 against full-length human RORγt is less than 5.70.
As to `CCn1nc(C(=O)NC[C@]2(O)CC[C@@H](S(C)(=O)=O)CC2)c(Cl)c1-c1ccc([C@@H](O)C2(C(F)(F)F)CC2)cc1OC(F)F` (single isomer, unassigned) [Example 111, 4-Chloro-5-(2-(difluoromethoxy)-4-((R*)-hydroxy(1-(trifluoromethyl)cyclopropyl)methyl)phenyl)-1-ethyl-N-(((1s,4S)-1-hydroxy-4-(methylsulfonyl)cyclohexyl)methyl)-1H-pyrazole-3-carboxamide], the inhibition at 1 µM on full-length human RORγt (setting [2]) was 95%.
In the case of `CCn1nc(C(=O)NC[C@]2(O)CC[C@@H](S(C)(=O)=O)CC2)c(Cl)c1-c1ccc([C@@](C)(O)CCC(F)(F)F)cc1OC(F)F` (single isomer, unassigned) [Example 102, 4-Chloro-5-(2-(difluoromethoxy)-4-((S*)-5,5,5-trifluoro-2-hydroxypentan-2-yl)phenyl)-1-ethyl-N-(((1s,4R)-1-hydroxy-4-(methylsulfonyl)cyclohexyl)methyl)-1H-pyrazole-3-carboxamide], the inhibition at 3 µM on full-length human RORγt (setting [4]) turned out to be 85%.
On to `[2H]C([2H])([2H])Oc1cc(CC(C)(C)C(F)(F)F)ccc1-c1c(Cl)c(C(=O)NC[C@]2(O)CC[C@@H](S(C)(=O)=O)CC2)nn1CC` [Example 192, 4-Chloro-1-ethyl-N-(((1s,4s)-1-hydroxy-4-(methylsulfonyl)cyclohexyl)methyl)-5-(2-(methoxy-d3)-4-(3,3,3-trifluoro-2,2-dimethylpropyl)phenyl)-1H-pyrazole-3-carboxamide], for which the inhibition at 2 µM on full-length human RORγt (setting [4]) stood at 96%.
